≈ marks a conversion by molar mass, not a printed value. Read-outs that look alike come from different tables or passages of the source.
Legend:
[1] = system: Flu A H1N1 New Caledonia/20/99; assay: Anti-influenza testing, visual and NR assays; assay type: cell-based, influenza A H1N1; conditions: for activity by visual and NR assays: Flu A H1N1
[2] = system: MDCK; assay: Anti-influenza testing, IC50 in MDCK cell line (cell-inhibitory concentration used for SI); assay type: cell-based; conditions: Canis lupus familiaris
[3] = system: H37Rv Colorado strain; assay: TB MIC Testing (Table 9); assay type: cell-based; conditions: Mycobacterium tuberculosis, read-out: MIC Value, Standard Test Strain H27Rv
[4] = system: H37Rv Colorado strain; assay: MBC Determination with H37Rv Colorado strain (Table 9); assay type: cell-based; conditions: Mycobacterium tuberculosis; Performed with H37Rv
[5] = system: TB; assay: DMID TB MIC Results (Table 10); assay type: cell-based; conditions: Mycobacterium tuberculosis; solvent DMSO
[6] = system: Flu A H3N2 California/7/04; assay: Anti-influenza testing, visual and NR assays; assay type: cell-based, influenza A H3N2; conditions: for activity by visual and NR assays: Flu A H3N2; for EC50: H3N2, MDCK
[7] = system: Plasmodium falciparum; assay: Anti-malaria testing; assay type: cell-based
[8] = system: Yersinia pestis; assay: microbe, parasite or virus in culture; assay type: cell-based; conditions: Yersinia pestis
[9] = system: Bacillus anthracis; assay: microbe, parasite or virus in culture; assay type: cell-based; conditions: Bacillus anthracis
[10] = system: Francisella tularensis; assay: microbe, parasite or virus in culture; assay type: cell-based; conditions: Francisella tularensis
[11] = system: Burkholderia mallei; assay: microbe, parasite or virus in culture; assay type: cell-based; conditions: Burkholderia mallei
[12] = system: B. anthracis; assay: microbe, parasite or virus in culture; assay type: cell-based; conditions: Bacillus anthracis, read-out: MIC B. anthracis
[13] = system: B. mallei; assay: microbe, parasite or virus in culture; assay type: cell-based; conditions: Burkholderia mallei, read-out: MIC B. mallei
[14] = system: B. pseudomallei; assay: microbe, parasite or virus in culture; assay type: cell-based; conditions: Burkholderia pseudomallei, read-out: MIC B. pseudomallei
[15] = system: F. tularensis; assay: microbe, parasite or virus in culture; assay type: cell-based; conditions: Francisella tularensis, read-out: MIC F. tularensis (Original Test)
[16] = system: Y. pestis; assay: microbe, parasite or virus in culture; assay type: cell-based; conditions: Yersinia pestis, read-out: MIC Y. pestis
[17] = system: E. coli; assay: microbe, parasite or virus in culture; assay type: cell-based; conditions: Escherichia coli, read-out: MIC E. coli
[18] = system: P. aeruginosa; assay: microbe, parasite or virus in culture; assay type: cell-based; conditions: Pseudomonas aeruginosa, read-out: MIC P. aeruginosa
[19] = system: Vero Cells; assay: Cytotoxicity Assay, CellTiter-Glo Luminescent Cell Viability Assay
[20] = average of Test 1 and Test 2, read-out: Average IC50

## N#CNC(=N)NC1C2CC3CCC1(NC(=N)NC#N)CC3C2 (stereo not drawn) [BVS-47]
[1]; Influenza A virus, H1N1, MDCK
  EC50: 0.25 µg/mL (≈ 0.832 µM)
[2]; Neutral Red assay, test with Flu A (H1N1) New Caledonia/20/99, trial 1
  IC50: 70 µg/mL (≈ 233 µM)

## NNC(=O)c1ccncc1 [Isoniazid, isoniazid, reference compound]
[3]
  MIC: 0.031 µg/mL (≈ 0.226 µM)
[4]
  MBC: 0.031 µg/mL (≈ 0.226 µM)
[5]
  MIC: 0.06 µg/mL (≈ 0.438 µM)

## O=C1C2C=CC=C([N+](=O)[O-])C2(C(=O)O)C(c2ccccc2)N1c1ccc(O)cc1 (stereo not drawn) [BVS-45A (I)]
[1]
  activity by visual and NR assays: highly active
[6]
  activity by visual and NR assays: highly active

## N#CNC(=N)NC1C2CC3CCC1(NC(=N)NC#N)CC3C2 (stereo not drawn) [BVS-47A (XX)]
[7]; [20]
  IC50: > 10 µM
[7]; read-out: IC50 Test 1
  IC50: > 10 µM
[7]; read-out: IC50 Test 2
  IC50: > 10 µM
[1]
  activity by visual and NR assays: highly active
[6]
  activity by visual and NR assays: highly active

## CC1COc2c(N3CCN(C(=N)NC#N)CC3)c(F)cc3c(=O)c(C(=O)O)cn1c23 (stereo not drawn) [BVS-60C (XVII)]
[8]
  MIC90: < 4 µg/mL
[9]
  MIC90: ≤ 0.25 µg/mL
[10]
  MIC90: < 4 µg/mL
[11]
  MIC90: < 4 µg/mL
[3]
  MIC: 0.312 µg/mL (≈ 0.753 µM)
[4]
  MBC: 0.625 µg/mL (≈ 1.51 µM)
[5]
  IC50: 0.22 µg/mL (≈ 0.531 µM)
  IC90: 0.23 µg/mL (≈ 0.555 µM)
  MIC: 0.312 µg/mL (≈ 0.753 µM)
[12]
  MIC: < 0.06 µg/mL
[13]
  MIC: 1 µg/mL (≈ 2.41 µM)
[14]
  MIC: 1 to 2 µg/mL (≈ 2.41 to 4.83 µM)
[15]
  MIC: < 0.06 µg/mL
[16]
  MIC: 0.06 µg/mL (≈ 0.145 µM)
[17]
  MIC: 0.06 to 0.12 µg/mL (≈ 0.145 to 0.29 µM)
[18]
  MIC: 2 µg/mL (≈ 4.83 µM)
[7]; [20]
  IC50: 6.11 µM
[7]; read-out: IC50 Test 1
  IC50: 6.11 µM
[19]; 0.01 μg/ml
  % Viability: 93%
[19]; 0.02 μg/ml
  % Viability: 95%
[19]; 5 μg/ml
  % Viability: 92%
[19]; 10 μg/ml
  % Viability: 88%
[19]; 20 μg/ml, vs […] DMSO controls
  % Viability: 96%

## C[C@@H]1COc2c(N3CCN(C(=N)NC(=N)NCCCCCCNC(=N)NC(=N)N4CCN(c5c(F)cc6c(=O)c(C(=O)O)cn7c6c5OC[C@@H]7C)CC4)CC3)c(F)cc3c(=O)c(C(=O)O)cn1c23 [BVS-85A (XVII)]
[3]
  MIC: 1.25 µg/mL (≈ 1.32 µM)
[4]
  MBC: 1.25 µg/mL (≈ 1.32 µM)
[5]
  IC50: 0.53 µg/mL (≈ 0.561 µM)
  IC90: 0.57 µg/mL (≈ 0.603 µM)
  MIC: 0.625 µg/mL (≈ 0.661 µM)
[12]
  MIC: < 0.06 µg/mL
[13]
  MIC: 0.5 µg/mL (≈ 0.529 µM)
[14]
  MIC: 8 µg/mL (≈ 8.47 µM)
[15]
  MIC: < 0.06 µg/mL
[16]
  MIC: 0.06 to 0.12 µg/mL (≈ 0.0635 to 0.127 µM)
[17]
  MIC: < 0.06 µg/mL
[18]
  MIC: 0.5 µg/mL (≈ 0.529 µM)
[7]; [20]
  IC50: 7.26 µM
[7]; read-out: IC50 Test 1
  IC50: 5.45 µM
[7]; read-out: IC50 Test 2
  IC50: 9.06 µM
[19]; 0.01 μg/ml
  % Viability: 109%
[19]; 0.02 μg/ml
  % Viability: 109%
[19]; 5 μg/ml
  % Viability: 106%
[19]; 10 μg/ml
  % Viability: 101%
[19]; 20 μg/ml, vs […] DMSO controls
  % Viability: 107%

## O=C1C2C=CC=C([N+](=O)[O-])C2(C(=O)O)C(c2ccccc2)N1c1ccc(O)cc1 (stereo not drawn) [BVS-45]
[1]; Influenza A virus, Virus Yield assay, Flu A (H1N1) New Caledonia/20/99, MDCK, vehicle DMSO, trial 2
  EC90: > 100 µg/mL
[1]; Influenza A virus, Visual-CONF assay, Flu A (H1N1) New Caledonia/20/99, MDCK, vehicle DMSO, trial 2, read-out: EC50
  EC50: 0.18 µg/mL (≈ 0.459 µM)
[6]; Influenza A virus, Neutral Red assay, Flu A (H3N2) California/7/04, MDCK, vehicle DMSO, trial 1
  EC50: 0.22 µg/mL (≈ 0.561 µM)
[6]; Influenza A virus, Visual assay, Flu A (H3N2) California/7/04, MDCK, vehicle DMSO, trial 1
  EC50: 0.056 µg/mL (≈ 0.143 µM)
[6]; Influenza A virus, Visual-CONF assay, Flu A (H3N2) California/7/04, MDCK, vehicle DMSO, trial 2
  EC50: 0.056 µg/mL (≈ 0.143 µM)
[6]; Influenza A virus, Virus Yield assay, Flu A (H3N2) California/7/04, MDCK, vehicle DMSO, trial 2
  EC90: 0.15 µg/mL (≈ 0.382 µM)
[2]; Neutral Red assay, test with Flu A (H3N2) California/7/04, trial 1, read-out: IC50
  IC50: 75 µg/mL (≈ 191 µM)
[2]; Visual assay, test with Flu A (H1N1) New Caledonia/20/99, trial 1
  IC50: > 100 µg/mL
[2]; Visual assay, test with Flu A (H3N2) California/7/04, trial 1, read-out: IC50
  IC50: > 100 µg/mL
[2]; Visual-CONF assay, test with Flu A (H1N1) New Caledonia/20/99, trial 2, read-out: IC50
  IC50: > 100 µg/mL
[2]; Visual-CONF assay, test with Flu A (H3N2) California/7/04, trial 2, read-out: IC50
  IC50: > 100 µg/mL

— patent US20140073631A1 (priority 2012, published 2014)
